Experiments:
Assay in all cases: combination Emax (second highest fraction inhibited in the dose matrix, 72 h); higher = more inhibition; extreme values may be limits of the assay
[1] = tested on: C2BBe1 (Colorectal Carcinoma)
Method in brief: (§1)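 Bliss excess equals the observed combination effect minus the expected value EA + EB − EA·EB, where EA and EB are the effects of each agent alone. Combination Emax is the second-highest inhibition within the matrix. Inhibition was scaled from CellTiter-Glo 2.0 luminescence, with 0 set by vehicle wells and 1 by blank wells, after 72 hours of two-drug dosing of cells plated in 1536-well plates.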

[2] = tested on: CAL-85-1 (Breast Carcinoma)
Method in brief: as §1

[3] = tested on: COR-L105 (Lung Adenocarcinoma)
Method in brief: as §1

[4] = tested on: DK-MG (Glioblastoma)
Method in brief: as §1

[5] = tested on: GCIY (Gastric Carcinoma)
Method in brief: as §1

[6] = tested on: L-363 (Plasma Cell Myeloma)
Method in brief: as §1

[7] = tested on: MRK-nu-1 (Breast Carcinoma)
Method in brief: as §1

[8] = tested on: NCI-H1944 (Lung Adenocarcinoma)
Method in brief: as §1

[9] = tested on: NCI-H1975 (Lung Adenocarcinoma)
Method in brief: as §1

[10] = tested on: NCI-H2009 (Lung Adenocarcinoma)
Method in brief: as §1

[11] = tested on: NCI-H2023 (Non-Small Cell Lung Carcinoma)
Method in brief: as §1

[12] = tested on: NCI-H2452 (Mesothelioma)
Method in brief: as §1

[13] = tested on: NCI-H835 (Other Solid Carcinomas)
Method in brief: as §1

[14] = tested on: OCI-M1 (Acute Myeloid Leukemia)
Method in brief: as §1

[15] = tested on: SK-N-DZ (Neuroblastoma)
Method in brief: as §1

[16] = tested on: SW1463 (Colorectal Carcinoma)
Method in brief: as §1

[17] = tested on: TK (B-Cell Non-Hodgkin's Lymphoma)
Method in brief: as §1

[18] = tested on: TOV-21G (Ovarian Carcinoma)
Method in brief: as §1

[19] = tested on: IGROV-1 (Ovarian Carcinoma)
Method in brief: as §1

[20] = tested on: JJN-3 (Plasma Cell Myeloma)
Method in brief: as §1

Compound | combination Emax [1] | combination Emax [2] | combination Emax [3] | combination Emax [4] | combination Emax [5] | combination Emax [6] | combination Emax [7] | combination Emax [8] | combination Emax [9] | combination Emax [10] | combination Emax [11] | combination Emax [12] | combination Emax [13] | combination Emax [14] | combination Emax [15] | combination Emax [16] | combination Emax [17] | combination Emax [18] | combination Emax [19] | combination Emax [20]
C=CCn1c(=O)c2cnc(Nc3ccc(N4CCN(C)CC4)cc3)nc2n1-c1cccc(C(C)(C)O)n1 [AZD1775] + C1CN(CCC1(C(=O)N[C@@H](CCO)C2=CC=C(C=C2)Cl)N)C3=NC=NC4=C3C=CN4 [Capivasertib] (first compound max 3 µM, partner max 3 µM) | 0.533 | 0.682 | 0.584 | 0.485 | 0.668 | 0.939 | 0.721 | 0.861 | 0.714 | 0.883 | 0.652 | 0.816 | 0.866 | 0.974 | 0.921 | 0.47 | 0.909 | 0.85 | – | –
CN(CCO)CC[C@H](CSc1ccccc1)Nc1ccc(S(=O)(=O)NC(=O)c2ccc(N3CCC([C@@H](O)c4ccccc4-c4ccc(Cl)cc4)CC3)cc2)cc1S(=O)(=O)C(F)(F)F [AZD4320] + Nc1ccn([C@@H]2O[C@H](CO)[C@@H](O)C2(F)F)c(=O)n1 [Gemcitabine] (first compound max 1 µM, 7x7, partner max 0.3 µM) | – | 0.702 | 0.514 | – | 0.782 | 0.458 | 0.892 | – | – | 0.505 | 0.884 | 0.355 | 0.966 | – | – | 0.455 | – | – | – | –
Cc1cc2ncnn2cc1Nc1ncc2c(n1)n(C1CCOCC1)c(=O)n2C [AZD7648] + C=CCn1c(=O)c2cnc(Nc3ccc(N4CCN(C)CC4)cc3)nc2n1-c1cccc(C(C)(C)O)n1 [AZD1775] (first compound max 10 µM, partner max 1 µM) | 0.345 | 0.452 | 0.492 | 0.43 | 0.49 | 0.979 | 0.596 | 0.583 | 0.421 | 0.566 | 0.703 | 0.663 | 0.69 | 0.87 | 0.927 | 0.411 | 0.895 | 0.56 | 0.819 | 0.704
Cc1cc2ncnn2cc1Nc1ncc2c(n1)n(C1CCOCC1)c(=O)n2C [AZD7648] + CCN(CCO)CCCOc1ccc2c(Nc3cc(CC(=O)Nc4cccc(F)c4)[nH]n3)ncnc2c1 [AZD2811] (first compound max 10 µM, 7x7, partner max 1 µM) | 0.196 | 0.31 | 0.31 | 0.273 | 0.49 | 0.413 | 0.824 | 0.415 | 0.384 | 0.335 | 0.534 | 0.497 | 0.36 | 0.237 | 0.635 | 0.27 | 0.281 | 0.327 | 0.566 | 0.308
Cc1cc2ncnn2cc1Nc1ncc2c(n1)n(C1CCOCC1)c(=O)n2C [AZD7648] + CN(C)CCCOc1ccc(-c2ccc3ncc4c(c3c2)n(C2CCOCC2)c(=O)n4C)cn1 [AZD0156] (first compound max 10 µM, 7x7, partner max 1 µM) | 0.211 | 0.371 | 0.339 | 0.27 | 0.437 | 0.393 | 0.515 | 0.29 | 0.398 | 0.14 | 0.586 | 0.42 | 0.36 | 0.173 | 0.31 | 0.159 | 0.204 | 0.169 | 0.584 | 0.17
Cc1cc2ncnn2cc1Nc1ncc2c(n1)n(C1CCOCC1)c(=O)n2C [AZD7648] + COc1cc([C@@H]2c3cc4c(cc3[C@@H](O[C@@H]3O[C@@H]5CO[C@@H](C)O[C@H]5[C@H](O)[C@H]3O)[C@H]3COC(=O)[C@H]23)OCO4)cc(OC)c1O [Etoposide] (first compound max 10 µM, 7x7, partner max 10 µM) | – | 0.629 | 0.338 | – | 0.759 | 0.702 | 0.726 | – | – | 0.824 | 0.621 | 0.355 | 0.692 | – | – | 0.371 | – | – | – | –
Cc1cc2ncnn2cc1Nc1ncc2c(n1)n(C1CCOCC1)c(=O)n2C [AZD7648] + C[C@@H]1COCCN1C2=NC(=NC(=C2)C3(CC3)[S@](=N)(=O)C)C4=C5C=CNC5=NC=C4 [AZD6738] (first compound max 10 µM, 7x7, partner max 10 µM) | 0.311 | 0.594 | 0.531 | 0.273 | 0.774 | 0.849 | 0.633 | 0.77 | 0.423 | 0.339 | 0.796 | 0.525 | 0.389 | 0.956 | 0.949 | 0.543 | 0.91 | 0.579 | 0.66 | 0.694

Reference: the supplement of paper PMC11061612
